According to EP4775575A1, “COMPOUND USED AS CDK4 KINASE INHIBITOR AND USE THEREOF” (TYK Medicines, Inc., priority 2023, dated 2025):
pIC50: −log10 of the molar value. Where two headings read alike, the source gives them in different places.

How the values were obtained:
[1] = test system: human ovarian cancer cells A2780; assay: Cell anti-proliferation assay (MTT), A2780; format: cell-based; settings: incubated for 5 days
Description: (§1) Human breast cancer cells MCF-7, human ovarian cancer cells A2780, human mantle cell lymphoma cells JEKO-1. DMEM medium (Bio-Channel), DMSO (dimethyl sulfoxide), MTT (thiazolyl blue), 0.25% EDTA-Trypsin (trypsin digestive solution), 1×PBS (phosphate buffered saline, pH 7.2), 96-well plate (Corning), fetal bovine serum (FBS), 10,000 U/mL penicillin-G/streptomycin, high-speed refrigerated centrifuge (EPPENDORF 5810R), and microplate reader (Tecan Spark).
(§2) • A) Tumor cells were cultured in DMEM (high glucose, containing 10% FBS and 100 U/mL penicillin-G/streptomycin) at 37 °C, 5% CO2 and saturated humidity until 80-90% confluence. • B) The medium in the 10 cm culture dish was removed. • C) Cells were rinsed once with 10 mL of 1×PBS. • D) 4 mL of 0.25% EDTA-Trypsin was added, and the cells were digested in a 37 °C, 5% CO2 incubator for 5 minutes. The mixture was transferred to a 15 mL centrifuge tube, centrifuged at 200 g for 5 minutes, and the supernatant was discarded to obtain cell pellet. • E) The cells were resuspended in 4 mL of DMEM medium, counted, and adjusted to 50,000 cells/mL. • F) 100 µL of cell suspension was added to each well of a 96-well plate, and the plate was incubated overnight at 37 °C in a 5% CO2 incubator.
(§3) • A) Gradient dilution solutions of the test compounds were prepared: the test compound was prepared into a 1 mM stock solution. Then 1.5 µL of the stock solution was dissolved in 1.5 mL of DMSO-free medium, followed by 3-fold serial gradient dilution with medium containing 0.1% DMSO to give 9 concentrations.
(§4) • A) The cell culture plate was taken out, and 10 µL of 5 mg/mL MTT was added in a biological safety cabinet; • B) The plate was returned to the incubator and incubated for another 3 hours; • C) The cell culture plate was taken out and the medium was removed, 100 µL of isopropanol (containing 0.4 mM HCl, 0.1% NP-40) was added, and the plate was shaken at room temperature for 30 minutes; • D) The absorbance at 570 nm was measured using a TECAN microplate reader.

[2] = test system: human mantle cell lymphoma cells JEKO-1; assay: Cell anti-proliferation assay (MTT), JEKO-1; format: cell-based; settings: JEKO-1 cells, incubated for 5 days
Description: as §1, §2, §3, §4

[3] = test system: Human breast cancer cells MCF-7; assay: Cell anti-proliferation assay (MTT), MCF-7; format: cell-based; settings: MCF-7 cells, incubated for 5 days
Description: as §1, §2, §3, §4

[4] = Preclinical pharmacokinetic study in rats; format: in vivo, Sprague-Dawley (SD) rats; settings: male SD rats, oral gavage (p.o.) 10 mg/kg, plasma; for AUC(0-t) / Cmax / Tmax: rat
Description: Healthy adult Sprague-Dawley (SD) rats, male, 6-8 weeks old, weighing 200-300 g. EDTA-Na2 anticoagulant. Analytical balance, animal weighing scale, magnetic stirrer, refrigerated centrifuge, single-channel manual pipette, etc. About 10 mg of the test sample was precisely weighed, dissolved in a calculated volume of 5% DMSO, followed by addition of 10% solutol HS-15 and 85% normal saline. The mixture was sonicated and vortexed to homogeneity to obtain a solution with a concentration of 1 mg/mL. The solution was freshly prepared before use. Animals were housed in rat cages and fasted overnight (no less than 10 h) before the test, with free access to water. On the day of the test, animals were weighed and marked on the tail. Blank blood samples were collected before administration. The blood was collected via tail vein. • Route of administration: oral gavage (p.o.) • Dose: 10 mg/kg • Dosing volume: 10 mL/kg • Procedure: The rat was held upright with the left hand wearing bite-resistant glove. A 16-gauge gavage needle was inserted through the mouth into the esophagus. The needle was advanced gently without obvious resistance, and the drug solution was injected into the stomach. Whole blood (0.1 mL) were collected from each test animal before administration and at 0.5 […], and 24 h after administration into EDTA-Na2 anticoagulant tubes. The tubes were inverted 3-4 times for mixing, then centrifuged at 10,000 g for 5 min at 4 °C to separate plasma. Plasma samples were stored at -80 °C until analysis. Blood was collected via tail vein. […] The mixture was vortexed for 2 min and centrifuged at 10,000 g for 10 min at 4 °C. Processing of unknown plasma samples: 25 μL of drug-containing rat plasma was transferred, followed by addition of 25 μL of methanol and 200 μL of internal standard solution. The mixture was vortexed for 2 min and centrifuged at 10,000 g for 10 min at 4 °C. The supernatant was collected for LC-MS/MS analysis. A quantitative method for the determination of the test compound was established using a Shimadzu liquid chromatography system coupled with Triple Quad^TM 6500+ AB mass spectrometer. The concentration of the parent drug in plasma was determined. The plasma concentration-time curve was plotted, and the main pharmacokinetic parameters were calculated using a non-compartmental model in winnonlin Phoenix software.

| SMILES | pIC50 ([1]; Homo sapiens, 120 h) | pIC50 ([2]; Homo sapiens, 120 h) | pIC50 ([3]; Homo sapiens, MCF7, 120 h) | other results |
| --- | --- | --- | --- | --- |
| C[C@H]1CCN(c2ccccc2C#N)c2nc3c(F)cc(-c4nc(N[C@@H]5CCOC[C@H]5O)ncc4Cl)cc3n21 [TC-18] | ≥ 6.30 | ≥ 6.30 | ≥ 6.30 | – |
| CN1CCCn2c1nc1c(F)cc(-c3nc(N[C@@H]4CCOC[C@H]4O)ncc3C(F)(F)F)cc12 [TB-41, (3S,4R)-4-((4-(9-fluoro-1-methyl-1,2,3,4-tetrahydrobenzo[4,5]imidazo[1,2-a]pyrimidin-7-yl)-5-(trifluoromethyl)pyrimidin-2-yl)amino)tetrahydro-2H-pyran-3-ol] | 5.70 to 6.30 | 5.70 to 6.30 | 5.70 to 6.30 | – |
| C[C@H]1CCN([C@H]2C[C@H](O)C2)c2nc3c(F)cc(-c4nc(N[C@@H]5CCOC[C@H]5O)ncc4Cl)cc3n21 [TA-31] | – | – | – | pIC50 [1]: 5.70 to 6.30; pIC50 [2]: ≥ 6.30; pIC50 ([3]; read-out: MCF7 IC50): < 5.70 |
| CN1CCC(C)(C)n2c1nc1c(F)cc(-c3cc(N[C@@H]4CCOC[C@H]4O)ncc3Cl)cc12 [TB-150] | ≥ 6.30 | ≥ 6.30 | ≥ 6.30 | – |
| CN1CCCn2c1nc1c(F)cc(-c3nc(NC4CCN(S(C)(=O)=O)CC4)ncc3Cl)cc12 [TB-43, 5-chloro-4-(9-fluoro-1-methyl-1,2,3,4-tetrahydrobenzo[4,5]imidazo[1,2-a]pyrimidin-7-yl)-N-(1-(methylsulfonyl)piperidin-4-yl)pyrimidin-2-amine] | – | – | – | pIC50 [1]: ≥ 6.30; pIC50 [2]: ≥ 6.30; pIC50 ([3]; read-out: MCF7 IC50): ≥ 6.30 |
| CC(C)n1c(N2CCOC2=O)nc2c(F)cc(-c3nc(N[C@@H]4CCOC[C@H]4O)ncc3C(F)(F)F)cc21 [TB-27] | – | – | – | AUC(0-t) ([4]; Sprague-Dawley): 11500 ng·h/mL; Cmax ([4]; Sprague-Dawley): 1500 ng/mL; Tmax ([4]; Sprague-Dawley): 140 min; HL_ [4]: 3.69 h |
| COc1ccc(CN2CC[C@H](C)n3c2nc2c(F)cc(-c4nc(N[C@@H]5CCOC[C@H]5O)ncc4Cl)cc23)cc1 [TA-8] | 5.70 to 6.30 | ≥ 6.30 | ≥ 6.30 | – |
| C[C@H]1CCN(c2cc(F)ccc2F)c2nc3c(F)cc(-c4nc(N[C@@H]5CCOC[C@H]5O)ncc4Cl)cc3n21 [TC-16] | ≥ 6.30 | ≥ 6.30 | ≥ 6.30 | – |
| C[C@H]1CC(=O)N(C)c2nc3c(F)cc(-c4cc(N[C@@H]5CCOC[C@H]5O)ncc4Cl)cc3n21 [TB-158] | ≥ 6.30 | ≥ 6.30 | ≥ 6.30 | – |
| C[C@H]1CCN(C2COC2)c2nc3c(F)cc(-c4nc(N[C@@H]5CCOC[C@H]5O)ncc4Cl)cc3n21 [TA-30] | < 5.70 | < 5.70 | < 5.70 | – |
| [2H]C([2H])([2H])N1CC[C@H](C)n2c1nc1c(F)cc(-c3nc(N[C@@H]4CCOC[C@H]4O)ncc3Cl)cc12 [TA-28] | – | – | – | HL_ [4]: 1.58 h; AUC(0-t) ([4]; in vivo): 2490 ng·h/mL; Cmax ([4]; in vivo): 990 ng/mL; Tmax ([4]; in vivo): 30 min; pIC50 [1]: ≥ 6.30; pIC50 [2]: ≥ 6.30; pIC50 ([3]; read-out: MCF7 IC50): ≥ 6.30 |
| C[C@H]1CCN(C2CCCC2)c2nc3c(F)cc(-c4nc(N[C@@H]5CCOC[C@H]5O)ncc4Cl)cc3n21 [TA-6] | ≥ 6.30 | 5.70 to 6.30 | ≥ 6.30 | – |
| C[C@H]1CCN(CC(F)(F)F)c2nc3c(F)cc(-c4nc(N[C@@H]5CCOC[C@H]5O)ncc4Cl)cc3n21 [TA-29] | ≥ 6.30 | ≥ 6.30 | ≥ 6.30 | AUC(0-t) ([4]; Sprague-Dawley): 1490 ng·h/mL; Cmax ([4]; Sprague-Dawley): 506 ng/mL; Tmax ([4]; Sprague-Dawley): 40.2 min; HL_ [4]: 1.60 h |
| C[C@H]1CCN(S(C)(=O)=O)c2nc3c(F)cc(-c4nc(N[C@@H]5CCOC[C@H]5O)ncc4Cl)cc3n21 [TC-8] | 5.70 to 6.30 | < 5.70 | < 5.70 | – |
| C[C@H]1C[C@H](C)n2c(nc3c(F)cc(-c4nc(N[C@@H]5CCOC[C@H]5O)ncc4Cl)cc32)N1C [TB-153] | – | – | – | pIC50 [1]: ≥ 6.30; pIC50 [2]: ≥ 6.30; pIC50 ([3]; read-out: MCF7 IC50): ≥ 6.30 |
| C[C@H]1CCN([C@H]2C[C@@H](O)C2)c2nc3c(F)cc(-c4nc(N[C@@H]5CCOC[C@H]5O)ncc4Cl)cc3n21 [TA-42] | 5.70 to 6.30 | 5.70 to 6.30 | < 5.70 | – |
| C[C@H]1CCN(C2CCC2)c2nc3c(F)cc(-c4nc(N[C@@H]5CCOC[C@H]5O)ncc4Cl)cc3n21 [TA-5] | ≥ 6.30 | ≥ 6.30 | 5.70 to 6.30 | – |
| CC(C)N1CCCn2c1nc1c(F)cc(-c3nc(N[C@@H]4CCOC[C@H]4O)ncc3Cl)cc12 [TB-108, (3S,4R)-4-((5-chloro-4-(9-fluoro-1-isopropyl-1,2,3,4-tetrahydrobenzo[4,5]imidazo[1,2-a]pyrimidin-7-yl)pyrimidin-2-yl)amino)tetrahydro-2H-pyran-3-ol] | ≥ 6.30 | ≥ 6.30 | ≥ 6.30 | AUC(0-t) ([4]; Sprague-Dawley): 1370 ng·h/mL; Cmax ([4]; Sprague-Dawley): 503 ng/mL; Tmax ([4]; Sprague-Dawley): 36 min; HL_ [4]: 1.25 h |
| C[C@H]1CCN(CC(F)F)c2nc3c(F)cc(-c4nc(N[C@@H]5CCOC[C@H]5O)ncc4Cl)cc3n21 [TC-6] | ≥ 6.30 | ≥ 6.30 | 5.70 to 6.30 | – |
| C[C@H]1CCN(c2c(F)cccc2F)c2nc3c(F)cc(-c4nc(N[C@@H]5CCOC[C@H]5O)ncc4Cl)cc3n21 [TC-15] | 5.70 to 6.30 | 5.70 to 6.30 | 5.70 to 6.30 | – |
| COC(=O)N1CCC(Nc2ncc(Cl)c(-c3cc(F)c4nc5n(c4c3)CCCN5C)n2)CC1 [TB-93, methyl 4-((5-chloro-4-(9-fluoro-1-methyl-1,2,3,4-tetrahydrobenzo[4,5]imidazo[1,2-a]pyrimidin-7-yl)pyrimidin-2-yl)amino)piperidine-1-carboxylate] | ≥ 6.30 | ≥ 6.30 | 5.70 to 6.30 | – |
| CCN1CCCn2c1nc1c(F)cc(-c3nc(N[C@@H]4CCOC[C@H]4O)ncc3Cl)cc12 [TB-109, (3S,4R)-4-((5-chloro-4-(1-ethyl-9-fluoro-1,2,3,4-tetrahydrobenzo[4,5]imidazo[1,2-a]pyrimidin-7-yl)pyrimidin-2-yl)amino)tetrahydro-2H-pyran-3-ol] | ≥ 6.30 | ≥ 6.30 | 5.70 to 6.30 | AUC(0-t) ([4]; Sprague-Dawley): 1770 ng·h/mL; Cmax ([4]; Sprague-Dawley): 777 ng/mL; Tmax ([4]; Sprague-Dawley): 30 min; HL_ [4]: 5.32 h |
